Test results taken from patent US20180155344A1, “TRICYCLIC PIPERIDINE COMPOUNDS” (ACTELION PHARMACEUTICALS LTD, priority 2015, published 2018).

Biological target: T1, human TPH1 (Homo sapiens, UniProt P17752)
T1 sequence (P17752 1-444): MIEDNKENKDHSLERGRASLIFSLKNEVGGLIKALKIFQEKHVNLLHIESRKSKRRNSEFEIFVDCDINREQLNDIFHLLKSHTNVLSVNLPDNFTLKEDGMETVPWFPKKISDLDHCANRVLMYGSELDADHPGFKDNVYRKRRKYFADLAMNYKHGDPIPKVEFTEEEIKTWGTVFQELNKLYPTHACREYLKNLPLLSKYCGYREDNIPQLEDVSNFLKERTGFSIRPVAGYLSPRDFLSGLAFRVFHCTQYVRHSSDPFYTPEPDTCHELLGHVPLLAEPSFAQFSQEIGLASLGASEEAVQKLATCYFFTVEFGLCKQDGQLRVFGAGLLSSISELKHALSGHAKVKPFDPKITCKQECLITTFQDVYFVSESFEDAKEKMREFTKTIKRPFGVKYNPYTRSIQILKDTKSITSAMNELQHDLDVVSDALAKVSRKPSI
Experiment: biochemical
Method in brief: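 Inhibition is derived from 5-hydroxy-L-tryptophan fluorescence (540 nm emission, 300 nm excitation) after perchloric acid stop, relative to DMSO vehicle. Recombinant full-length human enzyme (40-80 nM) reacts with 40 μM tryptophan plus 100 μM methyltetrahydropterin, pH 7.6 Tris/DTT/catalase, 15° C, 60 min.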

For `Cc1ccc(C2c3c(nc4cc(C(F)(F)F)ccn34)CCN2C(=O)COc2ccc3ccccc3c2)cn1` (stereo not shown) [Example 3.38.1, 1-(1-(6-methylpyridin-3-yl)-7-(trifluoromethyl)-3,4-dihydroimidazo[1,2-a:5,4-c′]dipyridin-2(1H)-yl)-2-(naphthalen-2-yloxy)ethan-1-one], the IC50 was 26 nM.

Work on `Cc1ccc(C2c3c(nc4cc(C(F)(F)F)ccn34)CCN2C(=O)COc2ccc(CN3CCOCC3)cc2Cl)cn1` (stereo not shown) [Example 3.38.2, 2-(2-chloro-4-(morpholinomethyl)phenoxy)-1-(1-(6-methylpyridin-3-yl)-7-(trifluoromethyl)-3,4-dihydroimidazo[1,2-a:5,4-c′]dipyridin-2(1H)-yl)ethan-1-one] yielded an IC50 of 92 nM.

Work on `COc1cc(C)c(C2c3c(nc4cc(C(F)(F)F)ccn34)CCN2C(=O)COc2ccc(CN3CCOCC3)cc2Cl)cn1` (stereo not shown) [Example 3.39.1, 2-(2-chloro-4-(morpholinomethyl)phenoxy)-1-(1-(6-methoxy-4-methylpyridin-3-yl)-7-(trifluoromethyl)-3,4-dihydroimidazo[1,2-a:5,4-c′]dipyridin-2(1H)-yl)ethan-1-one] yielded an IC50 of 46 nM.

In the case of `Cc1cc(C2c3c(nc4cc(C(F)(F)F)ccn34)CCN2C(=O)COc2ccc3ccccc3c2)n(C)n1` (stereo not shown) [Example 3.40.1, 1-(1-(1,3-dimethyl-1H-pyrazol-5-yl)-7-(trifluoromethyl)-3,4-dihydroimidazo[1,2-a:5,4-c′]dipyridin-2(1H)-yl)-2-(naphthalen-2-yloxy)ethan-1-one], the IC50 is reported as 432 nM.

Work on `O=C(COc1ccc2ccccc2c1)N1CCc2nc3cc(C(F)(F)F)ccn3c2C1c1cnn(-c2ccccc2)c1` (stereo not shown) [Example 3.41.1, 2-(naphthalen-2-yloxy)-1-(1-(1-phenyl-1H-pyrazol-4-yl)-7-(trifluoromethyl)-3,4-dihydroimidazo[1,2-a:5,4-c′]dipyridin-2(1H)-yl)ethan-1-one] yielded an IC50 of 328 nM.

Compound `O=C(COc1ccc(CN2CCOCC2)cc1Cl)N1CCc2nc3cc(C(F)(F)F)ccn3c2C1c1cnn(-c2ccccc2)c1` (stereo not shown) [Example 3.41.2, 2-(2-chloro-4-(morpholinomethyl)phenoxy)-1-(1-(1-phenyl-1H-pyrazol-4-yl)-7-(trifluoromethyl)-3,4-dihydroimidazo[1,2-a:5,4-c′]dipyridin-2(1H)-yl)ethan-1-one] has an IC50 of 24 nM.

Work on `Cc1c(CN2CCOCC2)ccc(OCC(=O)N2CCc3nc4cc(C(F)(F)F)ccn4c3C2c2cnn(-c3ccccc3)c2)c1C` (stereo not shown) [Example 3.41.3, 2-(2,3-dimethyl-4-(morpholinomethyl)phenoxy)-1-(1-(1-phenyl-1H-pyrazol-4-yl)-7-(trifluoromethyl)-3,4-dihydroimidazo[1,2-a:5,4-c′]dipyridin-2(1H)-yl)ethan-1-one] yielded an IC50 of 68 nM.

Compound `Cc1csc(C2c3c(nc4cc(C(F)(F)F)ccn34)CCN2C(=O)COc2ccc3ccccc3c2)n1` (stereo not shown) [Example 3.42.1, 1-(1-(4-methylthiazol-2-yl)-7-(trifluoromethyl)-3,4-dihydroimidazo[1,2-a:5,4-c′]dipyridin-2(1H)-yl)-2-(naphthalen-2-yloxy)ethan-1-one] has an IC50 of 260 nM.

For `Cc1csc(C2c3c(nc4cc(C(F)(F)F)ccn34)CCN2C(=O)COc2ccc(CN3CCOCC3)cc2Cl)n1` (stereo not shown) [Example 3.42.2, 2-(2-chloro-4-(morpholinomethyl)phenoxy)-1-(1-(4-methylthiazol-2-yl)-7-(trifluoromethyl)-3,4-dihydroimidazo[1,2-a:5,4-c′]dipyridin-2(1H)-yl)ethan-1-one], the IC50 was 427 nM.

Work on `O=C(COc1ccc(CN2CCOCC2)cc1Cl)N1CCc2nc3cc(C(F)(F)F)ccn3c2C1c1ncc2ccccn12` (stereo not shown) [Example 3.43.1, 2-(2-chloro-4-(morpholinomethyl)phenoxy)-1-(1-(imidazo[1,5-a]pyridin-3-yl)-7-(trifluoromethyl)-3,4-dihydroimidazo[1,2-a:5,4-c′]dipyridin-2(1H)-yl)ethan-1-one] yielded an IC50 of 130 nM.

With `O=C(COc1ccc2ccccc2c1)N1CCc2nc3cc(C(F)(F)F)ccn3c2C1c1ncc2ccccn12` (stereo not shown) [Example 3.43.2, 1-(1-(imidazo[1,5-a]pyridin-3-yl)-7-(trifluoromethyl)-3,4-dihydroimidazo[1,2-a:5,4-c′]dipyridin-2(1H)-yl)-2-(naphthalen-2-yloxy)ethan-1-one] the IC50 was 209 nM.

Compound `O=C(COc1ccc2ccccc2c1)N1CCc2nc3cc(C(F)(F)F)ccn3c2C1c1nc2ccccc2s1` (stereo not shown) [Example 3.44.1, 1-(1-(benzo[d]thiazol-2-yl)-7-(trifluoromethyl)-3,4-dihydroimidazo[1,2-a:5,4-c′]dipyridin-2(1H)-yl)-2-(naphthalen-2-yloxy)ethan-1-one] has an IC50 of 76 nM.

In the case of `O=C(COc1ccc(CN2CCOCC2)cc1Cl)N1CCc2nc3cc(C(F)(F)F)ccn3c2C1c1nc2ccccc2s1` (stereo not shown) [Example 3.44.2, 1-(1-(benzo[d]thiazol-2-yl)-7-(trifluoromethyl)-3,4-dihydroimidazo[1,2-a:5,4-c′]dipyridin-2(1H)-yl)-2-(2-chloro-4-(morpholinomethyl)phenoxy)ethan-1-one], the IC50 is reported as 23 nM.

Work on `Cc1cc(C2c3c(nc4cc(C(F)(F)F)ccn34)CCN2C(=O)COc2ccc3ccccc3c2)no1` (stereo not shown) [Example 3.45.1, 1-(1-(5-methylisoxazol-3-yl)-7-(trifluoromethyl)-3,4-dihydroimidazo[1,2-a:5,4-c′]dipyridin-2(1H)-yl)-2-(naphthalen-2-yloxy)ethan-1-one] yielded an IC50 of 349 nM.

For `O=C(COc1ccc(CN2CCOCC2)cc1Cl)N1CCc2nc3cc(C(F)(F)F)ccn3c2C1c1cc(-c2ccccc2)on1` (stereo not shown) [Example 3.46.1, 2-(2-chloro-4-(morpholinomethyl)phenoxy)-1-(1-(5-phenylisoxazol-3-yl)-7-(trifluoromethyl)-3,4-dihydroimidazo[1,2-a:5,4-c′]dipyridin-2(1H)-yl)ethan-1-one], the IC50 was 22 nM.

Work on `O=C(COc1ccc2ccccc2c1)N1CCc2nc3cc(C(F)(F)F)ccn3c2C1c1cc(-c2ccccc2)on1` (stereo not shown) [Example 3.46.2, 2-(naphthalen-2-yloxy)-1-(1-(5-phenylisoxazol-3-yl)-7-(trifluoromethyl)-3,4-dihydroimidazo[1,2-a:5,4-c′]dipyridin-2(1H)-yl)ethan-1-one] yielded an IC50 of 206 nM.

`O=C(COc1ccc2ccccc2c1)N1CCc2nc3cc(C(F)(F)F)ccn3c2C1c1cc(-c2ccc(F)cc2)on1` (stereo not shown) [Example 3.47.1, 1-(1-(5-(4-fluorophenyl)isoxazol-3-yl)-7-(trifluoromethyl)-3,4-dihydroimidazo[1,2-a:5,4-c′]dipyridin-2(1H)-yl)-2-(naphthalen-2-yloxy)ethan-1-one] was tested, and the IC50 was 368 nM.

In the case of `O=C(COc1ccc(CN2CCOCC2)cc1Cl)N1CCc2nc3cc(C(F)(F)F)ccn3c2C1c1cc(-c2ccc(F)cc2)on1` (stereo not shown) [Example 3.47.2, 2-(2-chloro-4-(morpholinomethyl)phenoxy)-1-(1-(5-(4-fluorophenyl)isoxazol-3-yl)-7-(trifluoromethyl)-3,4-dihydroimidazo[1,2-a:5,4-c′]dipyridin-2(1H)-yl)ethan-1-one], the IC50 is reported as 41 nM.

Compound `O=C(COc1ccc(CN2CCOCC2)cc1Cl)N1CCc2nc3cc(C(F)(F)F)ccn3c2C1c1ncn2ccccc12` (stereo not shown) [Example 3.48.1, 2-(2-chloro-4-(morpholinomethyl)phenoxy)-1-(1-(imidazo[1,5-a]pyridin-1-yl)-7-(trifluoromethyl)-3,4-dihydroimidazo[1,2-a:5,4-c′]dipyridin-2(1H)-yl)ethan-1-one] has an IC50 of 214 nM.

Work on `O=C(COc1ccc2ccccc2c1)N1CCc2nc3cc(C(F)(F)F)ccn3c2C1c1cc2cccnc2s1` (stereo not shown) [Example 3.49.1, 2-(naphthalen-2-yloxy)-1-(1-(thieno[2,3-b]pyridin-2-yl)-7-(trifluoromethyl)-3,4-dihydroimidazo[1,2-a:5,4-c′]dipyridin-2(1H)-yl)ethan-1-one] yielded an IC50 of 47 nM.

Compound `O=C(COc1ccc(CN2CCOCC2)cc1Cl)N1CCc2nc3cc(C(F)(F)F)ccn3c2C1c1cc2cccnc2s1` (stereo not shown) [Example 3.49.2, 2-(2-chloro-4-(morpholinomethyl)phenoxy)-1-(1-(thieno[2,3-b]pyridin-2-yl)-7-(trifluoromethyl)-3,4-dihydroimidazo[1,2-a:5,4-c′]dipyridin-2(1H)-yl)ethan-1-one] has an IC50 of 13 nM.

Work on `Cc1ccc(C2c3c(nc4cc(C(F)(F)F)ccn34)CCN2C(=O)COc2ccc3ccccc3c2)nc1` (stereo not shown) [Example 3.50.1, 1-(1-(5-methylpyridin-2-yl)-7-(trifluoromethyl)-3,4-dihydroimidazo[1,2-a:5,4-c′]dipyridin-2(1H)-yl)-2-(naphthalen-2-yloxy)ethan-1-one] yielded an IC50 of 58 nM.

With `Cc1ccc(C2c3c(nc4cc(C(F)(F)F)ccn34)CCN2C(=O)COc2ccc(CN3CCOCC3)cc2Cl)nc1` (stereo not shown) [Example 3.50.2, 2-(2-chloro-4-(morpholinomethyl)phenoxy)-1-(1-(5-methylpyridin-2-yl)-7-(trifluoromethyl)-3,4-dihydroimidazo[1,2-a:5,4-c′]dipyridin-2(1H)-yl)ethan-1-one] the IC50 was 100 nM.

`Cc1ccc(C2c3c(nc4cc(C(F)(F)F)ccn34)CCN2C(=O)COc2cc(-c3ccccc3)nn2C)nc1` (stereo not shown) [Example 3.50.3, 2-((1-methyl-3-phenyl-1H-pyrazol-5-yl)oxy)-1-(1-(5-methylpyridin-2-yl)-7-(trifluoromethyl)-3,4-dihydroimidazo[1,2-a:5,4-c′]dipyridin-2(1H)-yl)ethan-1-one] gave an IC50 of 468 nM.

Work on `Cc1noc(C)c1C1c2c(nc3cc(C(F)(F)F)ccn23)CCN1C(=O)COc1ccc2ccccc2c1` (stereo not shown) [Example 3.51.1, 1-(1-(3,5-dimethylisoxazol-4-yl)-7-(trifluoromethyl)-3,4-dihydroimidazo[1,2-a:5,4-c′]dipyridin-2(1H)-yl)-2-(naphthalen-2-yloxy)ethan-1-one] yielded an IC50 of 87 nM.
